Data reported in patent EP4471048A1, “PEPTIDE INHIBITORS OF INTERLEUKIN-23 RECEPTOR” (Zealand Pharma A/S, priority 2023, dated 2024).
Where a SMILES comes first, the peptide text is derived from it. Bridges are numbered along the chain shown (N, C = ends). [ ]: non-standard residue; d: D form. 2Nal = N[C@@H](Cc1ccc2ccccc2c1)C(=O)O; AEF = NCCOc1ccc(C[C@H](N)C(=O)O)cc1; 3Pal = N[C@@H](Cc1cccnc1)C(=O)O; Lys(Me) = CNCCCC[C@H](N)C(=O)O; αMeL = CC(C)C[C@](C)(N)C(=O)O; NMeK = CN[C@@H](CCCCN)C(=O)O; Dab = NCC[C@H](N)C(=O)O; βAla = NCCC(=O)O

Key:
human IL-23R = biological target: T1, human IL-23R (Homo sapiens, UniProt Q5VWK5); assay: biochemical; conditions: for Emax: read-out: % displacement (hIL-23R NIuc)
T1 sequence (Q5VWK5 22-629): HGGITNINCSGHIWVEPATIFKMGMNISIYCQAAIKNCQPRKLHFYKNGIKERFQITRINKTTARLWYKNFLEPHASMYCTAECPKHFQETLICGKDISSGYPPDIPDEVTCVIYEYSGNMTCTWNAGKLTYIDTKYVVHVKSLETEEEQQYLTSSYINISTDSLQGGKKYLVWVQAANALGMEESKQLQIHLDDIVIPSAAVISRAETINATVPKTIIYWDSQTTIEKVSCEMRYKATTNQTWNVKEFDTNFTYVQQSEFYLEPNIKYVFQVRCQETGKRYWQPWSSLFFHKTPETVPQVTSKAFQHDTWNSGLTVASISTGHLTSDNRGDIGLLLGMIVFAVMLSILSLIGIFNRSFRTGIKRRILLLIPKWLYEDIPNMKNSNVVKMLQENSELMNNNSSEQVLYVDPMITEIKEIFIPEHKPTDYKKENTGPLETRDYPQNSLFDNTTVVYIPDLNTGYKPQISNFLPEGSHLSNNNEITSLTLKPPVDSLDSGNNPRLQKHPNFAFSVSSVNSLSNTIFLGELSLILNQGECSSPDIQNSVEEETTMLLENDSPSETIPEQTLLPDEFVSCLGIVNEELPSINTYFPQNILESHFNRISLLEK
Outline: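 Membranes from HEK293 cells stably expressing Nluc-tagged human IL-23R were incubated 2 h at room temperature with test compound and a fluorophore-labelled tracer. After substrate addition, loss of BRET (TAMRA over luciferase emission) reported tracer displacement. A 4PL fit gave IC50 values.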

[1] = Peptide stability in simulated intestinal fluid (SIF); format: in vitro ADME; conditions: pig, 37 °C, porcine pancreatin; for remaining at 1 h, 10 µM: pH 6.8, 1 h; for remaining at 4 h, 10 µM: pH 6.8, 4 h
Method: (§1) SGF was prepared by dissolving sodium chloride (0.2 g) in 50 mL of water. A volume of 0.7 mL of 10 M HCl was added to adjust the pH of the solution to 1.2 and the volume made up to 100 mL with water. […] SIF was prepared by dissolving monobasic potassium phosphate (0.68 g) in 50 mL of water and adjusting the pH to 6.8 with 1 M NaOH. The volume was subsequently made up to 100 mL with water. 200 mg porcine pancreatin (P1625, Sigma Aldrich) was gently dissolved into 20 mL preheated (37 °C) solution (10 g/L) immediately prior to the incubation.
(§2) The incubation was performed at 37 °C with gentle shaking. […] After the last timepoint, the sampling plate was mixed for 10 min on a shaking table and centrifuged 10 min at 2200 g. 70 µL resulting supernatant was diluted with 150 µL water, mixed and centrifugated before analysis by liquid chromatography high resolution mass spectrometry. […] Percent remaining at each timepoint was calculated relative to timepoint zero based on absolute peak areas.
Compounds with a SIF stability (after 4 h) above 70% are considered highly SIF stable.

[2] = Peptide stability in simulated gastric fluid (SGF); format: in vitro ADME; conditions: pig, simulated gastric fluid (SGF) with porcine pepsin (3.2 g/L), pH 1.2, 10 µM, 37 °C, porcine pepsin; for remaining at 1 h, 10 µM: pH 1.2, 1 h, read-out: SGF (% remaining 1 h); for remaining at 4 h, 10 µM: pH 1.2, 4 h, read-out: SGF (% remaining 4 h)
Method: as §1, §2
Compounds with a SGF stability (after 4 h) above 70% are considered highly SGF stable. […] Table 3-4: SGF data

[3] = read-out: SIF (% remaining 4 h)

Emax (human IL-23R) [%] | remaining at 1 h, 10 µM [1] [%] | remaining at 4 h, 10 µM [1, 3] [%] | remaining at 1 h, 10 µM [2] [%] | remaining at 4 h, 10 µM [2] [%] | IC50 (human IL-23R) [nM] | % displacement (hIL-23R NIuc) (human IL-23R) [%] | remaining at 4 h, 10 µM ([1]; SAR tables, % peptide remaining, read-out: SIF (% after 4 h)) [%] | Structure (SMILES)
99 | 91 | 89 | 94 | 92 |  |  |  | CC[C@H](C)[C@@H]1NC(=O)[C@@H]2CCC(=O)N(C)CCCC[C@@H](C(=O)N[C@@H](CCN)C(=O)N[C@@H](Cc3cccnc3)C(=O)NC)NC(=O)[C@](C)(CC(C)C)NC(=O)[C@H](Cc3ccc4ccccc4c3)NC(=O)[C@H](Cc3ccc(OCCN)cc3)NC(=O)[C@H](CCC(=O)N2)NC(=O)[C@H](CCC(N)=O)NC(=O)[C@H](Cc2c[nH]c3ccccc23)NC(=O)[C@H](C(C)C)NC1=O [Compound 74, E(1c)(6c)^†IVWQE(6c)[Y(2-aminoethoxy)][2-Nal][2-Me-Leu][K(Me)](1 c)[Dab][3-(3-Pyridyl)-Ala]-[NHMe]] (EIVWQE[AEF][2Nal][αMeL][Lys(Me)][Dab][3Pal]-NHMe; lactam 1-10, N-6)
102 | 116 | 89 | 107 | 104 | 0.017 |  |  | CNC(=O)[C@H](Cc1cccnc1)NC(=O)[C@H](CCN)NC(=O)[C@@H]1CCC(=O)NCCCC[C@H]2C(=O)NCCC(=O)N[C@@H](Cc3c[nH]c4ccccc34)C(=O)N[C@@H](CCC(N)=O)C(=O)N[C@@H](CCC(=O)N2C)C(=O)N[C@@H](Cc2ccc(OCCN)cc2)C(=O)N[C@@H](Cc2ccc3ccccc3c2)C(=O)N[C@@](C)(CC(C)C)C(=O)N1 [Compound 80, [N-Me-Lys](1c)(6c)^†[3-Aminopropanoyl]WQE(6c)[Y(2-aminoethoxy)][2-Nal][2-Me-Leu]E(1c)[Dab][3-(3-Pyridyl)-Ala]-[NHMe]] ([NMeK][βAla]WQE[AEF][2Nal][αMeL]E[Dab][3Pal]-NHMe; lactam 1-9, N-5)
101 | 108 | 112 | 98 | 97 | 0.12 |  |  | CC[C@H](C)[C@@H]1NC(=O)[C@@H]2CCCCNC(=O)CC[C@@H](C(=O)N[C@@H](CCN)C(=O)NCCc3cccnc3)NC(=O)[C@](C)(CC(C)C)NC(=O)[C@H](Cc3ccc4ccccc4c3)NC(=O)[C@H](Cc3ccc(OCCN)cc3)NC(=O)[C@H](CCC(=O)N2)NC(=O)[C@H](CCC(N)=O)NC(=O)[C@H](Cc2c[nH]c3ccccc23)NC(=O)[C@H](C(C)C)NC1=O [Compound 66, K(1c)(6c)^†IVWQE(6c)[Y(2-aminoethoxy)][2-Nal][2-Me-Leu]E(1c)[Dab]-[NH-2-(pyridin-3-yl)ethyl]]
 | 95 | 81 | 78 | 8 | 320 | 98 |  | COc1ccc(C[C@@H]2NC(=O)[C@@H]3CCC(=O)N[C@@H](CCCCNC(=O)CC[C@@H](C(=O)N[C@@H](CCCCNC(=O)c4cccnc4)C(N)=O)NC(=O)[C@](C)(CC(C)C)NC(=O)[C@H](Cc4ccc5ccccc5c4)NC2=O)C(=O)N[C@@H]([C@@H](C)O)C(=O)N[C@@H](C(C)C)C(=O)N[C@@H](Cc2c[nH]c4ccccc24)C(=O)N[C@@H](CCC(N)=O)C(=O)N3)cc1 [Compound 50, K(1c)(6c)^†TVWQE(6c)[Y(Me)][2-Nal][2-Me-Leu]E(1c)[K(nicotinate)]-[NH2]]
101 | 101 |  | 102 | 95 | 0.41 |  | 72 | CC[C@H](C)[C@@H]1NC(=O)[C@@H]2CCCCNC(=O)CC[C@@H](C(=O)N[C@H](Cc3cnc[nH]3)C(=O)N[C@@H](Cc3cccnc3)C(=O)NC)NC(=O)[C@](C)(CC(C)C)NC(=O)[C@H](Cc3ccc4ccccc4c3)NC(=O)[C@H](Cc3ccc(OCCN)cc3)NC(=O)[C@H](CCC(=O)N2)NC(=O)[C@H](CCC(N)=O)NC(=O)[C@H](Cc2c[nH]c3ccccc23)NC(=O)[C@H](C(C)C)NC1=O [Compound 70, K(1c)(6c)^†IVWQE(6c)[Y(2-aminoethoxy)][2-Nal][2-Me-Leu]E(1c)[{d}H][3-(3-Pyridyl)-Ala]-[NHMe]]
91 | 103 | 105 | 105 | 105 | 0.03 |  |  | CC[C@H](C)[C@H]1CC(=O)N[C@@H](Cc2c[nH]c3ccccc23)C(=O)N[C@@H](CCC(N)=O)C(=O)N[C@H]2CCC(=O)N[C@@H](CCCCNC(=O)CC[C@@H](C(=O)N[C@@H](CCN)C(=O)N[C@@H](Cc3cccnc3)C(=O)NC)NC(=O)[C@](C)(CC(C)C)NC(=O)[C@H](Cc3ccc4ccccc4c3)NC(=O)[C@H](Cc3ccc(OCCN)cc3)NC2=O)C(=O)N1 [Compound 96, K(1c)(6c)^†[beta-hlle]WQE(6c)[Y(2-aminoethoxy)][2-Nal][2-Me-Leu]E(1c)[Dab][3-(3-Pyridyl)-Ala]-[NHMe]]
101 | 96 | 79 | 102 | 92 | 0.017 |  |  | CC[C@H](C)[C@@H]1NC(=O)[C@@H]2CCCCNC(=O)CC[C@@H](C(=O)N[C@@H](CCN)C(=O)N[C@@H](Cc3cccnc3)C(=O)NC)NC(=O)[C@](C)(CC(C)C)NC(=O)[C@H](Cc3ccc4ccccc4c3)NC(=O)[C@H](Cc3ccc(OCCN)cc3)NC(=O)[C@H](CCC(=O)N2C)NC(=O)[C@H](CCC(N)=O)NC(=O)[C@H](Cc2c[nH]c3ccccc23)NC(=O)[C@H](C(C)C)NC1=O [Compound 75, [N-Me-Lys](1c)(6c)^†IVWQE(6c)[Y(2-aminoethoxy)][2-Nal][2-Me-Leu]E(1c)[Dab][3-(3-Pyridyl)-Ala]-[NHMe]]
 | 1 | 1 | 87 | 89 | 0.039 | 103 |  | CNC(=O)[C@H](Cc1cccnc1)NC(=O)[C@H](Cc1cccnc1)NC(=O)[C@@H]1CCC(=O)NCCCC[C@@H]2NC(=O)CC[C@H](NC(=O)[C@H](CCC(N)=O)NC(=O)[C@H](Cc3c[nH]c4ccccc34)NC(=O)CCNC2=O)C(=O)N[C@@H](Cc2ccc(OCCN)cc2)C(=O)N[C@@H](Cc2ccc3ccccc3c2)C(=O)N[C@@](C)(CC(C)C)C(=O)N1 [Compound 87, K(1c)(6c)^†[3-Aminopropanoyl]WQE(6c)[Y(2-aminoethoxy)][2-Nal][2-Me-Leu]E(1 c)[3-(3-Pyridyl)-Ala][3-(3-Pyridyl)-Ala]-[NHMe]]
97 | 92 | 82 | 107 | 103 | 0.11 |  |  | CNC(=O)[C@H](Cc1cccnc1)NC(=O)[C@H](CCN)NC(=O)[C@@H]1CCC(=O)NCCCC[C@@H]2NC(=O)CC[C@H](NC(=O)[C@H](CCC(N)=O)NC(=O)[C@H](Cc3c[nH]c4ccccc34)NC(=O)CCNC2=O)C(=O)N[C@@H](Cc2ccccn2)C(=O)N[C@@H](Cc2ccc3ccccc3c2)C(=O)N[C@@](C)(CC(C)C)C(=O)N1 [Compound 84, K(1c)(6c)^†[3-Aminopropanoyl]WQE(6c)[3-(2-Pyridyl)-Ala][2-Nal][2-Me-Leu]E(1c)[Dab][3-(3-Pyridyl)-Ala]-[NHMe]]
 | 77 | 36 | 94 | 111 | 0.049 | 101 |  | CNC(=O)[C@H](Cc1cccnc1)NC(=O)[C@H](Cc1cnc[nH]1)NC(=O)[C@@H]1CCC(=O)NCCCC[C@@H]2NC(=O)CC[C@H](NC(=O)[C@H](CCC(N)=O)NC(=O)[C@H](Cc3c[nH]c4ccccc34)NC(=O)CCNC2=O)C(=O)N[C@@H](Cc2ccc(OCCN)cc2)C(=O)N[C@@H](Cc2ccc3ccccc3c2)C(=O)N[C@@](C)(CC(C)C)C(=O)N1 [Compound 86, K(1c)(6c)^†[3-Aminopropanoyl]WQE(6c)[Y(2-aminoethoxy)][2-Nal][2-Me-Leu]E(1c)H[3-(3-Pyridyl)-Ala]-[NHMe]]
